Experimental data as given in patent US20240217967A1, “INDOLINE DERIVATIVES AS DDRS INHIBITORS” (CHIESI FARMACEUTICI S.P.A., priority 2021, published 2024).

Key:
DDR1 [1] = target: T1, DDR1 (Homo sapiens, UniProt Q08345); assay: DDR1 LanthaScreen Europium Kinase Binding assay; conditions: binding affinity; IC50 converted in Ki using Cheng-Prusoff; read-out: Ki DDR1
Protocol: (§1) DDR1 and DDR2 binding assays were performed using Life Technologies LanthaScreen™ Europium Kinase Binding assay. The compounds were incubated with 5 nM DDR1 (Carna Biosciences) or 5 nM DDR2 (Life Technologies) for 1 hour at room temperature in white 384-well OptiPlate (PerkinElmer), containing 20 nM or 10 nM Kinase Tracer 178 respectively and 2 nM Europium labelled anti-GST antibody (Life Technologies) in assay buffer (50 mM HEPES pH 7.5, 10 mM MgCI2, 1 mM EGTA and 0.01% BRIJ35). The ratio of fluorescence emission 665 nm/615 nm after excitation at 340 nm was obtained using the Tecan Spark 20M plate reader. IC50 values were determined in GraphPad Prism 7.0 software, using 4 parameter model: log(inhibitor) vs. response. IC50 values were converted in Ki using the Cheng-Prusoff equation (Ki=IC50/(1+[Tracer]/Kd).

DDR2 = target: T2, DDR2 (Homo sapiens, UniProt Q16832); assay: DDR2 LanthaScreen Europium Kinase Binding assay; conditions: binding affinity; IC50 converted in Ki using Cheng-Prusoff; read-out: Ki DDR2
T2 sequence (Q16832 22-855): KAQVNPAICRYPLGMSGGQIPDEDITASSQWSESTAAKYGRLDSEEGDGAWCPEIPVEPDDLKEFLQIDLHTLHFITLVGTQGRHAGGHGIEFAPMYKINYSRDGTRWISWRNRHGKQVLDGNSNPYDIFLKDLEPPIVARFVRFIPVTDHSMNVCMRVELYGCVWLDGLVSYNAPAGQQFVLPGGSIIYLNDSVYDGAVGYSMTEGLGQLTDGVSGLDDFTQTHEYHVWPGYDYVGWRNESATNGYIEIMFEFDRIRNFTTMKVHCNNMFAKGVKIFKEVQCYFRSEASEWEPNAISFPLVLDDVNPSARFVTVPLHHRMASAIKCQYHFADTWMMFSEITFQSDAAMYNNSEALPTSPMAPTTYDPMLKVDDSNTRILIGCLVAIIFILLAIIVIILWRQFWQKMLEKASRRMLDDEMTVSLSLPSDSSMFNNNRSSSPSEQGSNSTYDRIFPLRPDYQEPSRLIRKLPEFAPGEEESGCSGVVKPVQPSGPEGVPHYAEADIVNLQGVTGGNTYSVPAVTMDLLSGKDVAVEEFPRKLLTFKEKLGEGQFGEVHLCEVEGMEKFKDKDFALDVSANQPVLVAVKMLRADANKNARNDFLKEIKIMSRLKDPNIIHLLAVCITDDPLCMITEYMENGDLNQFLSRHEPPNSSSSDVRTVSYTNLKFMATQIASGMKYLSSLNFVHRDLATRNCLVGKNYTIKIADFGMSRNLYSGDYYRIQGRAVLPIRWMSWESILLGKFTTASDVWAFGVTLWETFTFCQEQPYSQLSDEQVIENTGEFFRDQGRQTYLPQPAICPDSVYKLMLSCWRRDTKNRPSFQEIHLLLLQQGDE
Protocol: as §1

DDR1 [2] = target: T1, DDR1; assay: DDR1 cell based assay (PathHunter U2OS DDR1, collagen II stimulation); conditions: U2OS-DDR1 cells, bovine Type II Collagen stimulation
Protocol: The inhibition of DDR1 receptor activation by compounds was evaluated by PathHunter® U2OS DDR1 assay (Eurofins DiscoverX), according to the manufacturer's instructions. Briefly, U2OS-DDR1 cells were seeded in white 384-well plates at a density of 5000 cells/well and incubated for 2 hours at 37° C. and 5% CO2. Cells were then treated with compounds at different concentrations and incubated for 30 minutes, before stimulation with bovine Type II Collagen 20 μg/ml and incubation overnight at 37° C. and 5% CO2. PathHunter Detection Reagents were prepared according to the protocol provided by DiscoverX and 20 μl/well of this mix were added to each well. After incubating the plates for 1 hour at room temperature in the dark, luminescence signal was acquired with a plate reader. Raw data were normalized to vehicle control (0% for normalization) and positive control (100% for normalization; cells treated with 20 μg/ml collagen II) and IC50 parameters were calculated in GraphPad Prism 8.0 software, using sigmoidal dose-response curve fitting with variable slope.

T1 sequence (Q08345 19-913): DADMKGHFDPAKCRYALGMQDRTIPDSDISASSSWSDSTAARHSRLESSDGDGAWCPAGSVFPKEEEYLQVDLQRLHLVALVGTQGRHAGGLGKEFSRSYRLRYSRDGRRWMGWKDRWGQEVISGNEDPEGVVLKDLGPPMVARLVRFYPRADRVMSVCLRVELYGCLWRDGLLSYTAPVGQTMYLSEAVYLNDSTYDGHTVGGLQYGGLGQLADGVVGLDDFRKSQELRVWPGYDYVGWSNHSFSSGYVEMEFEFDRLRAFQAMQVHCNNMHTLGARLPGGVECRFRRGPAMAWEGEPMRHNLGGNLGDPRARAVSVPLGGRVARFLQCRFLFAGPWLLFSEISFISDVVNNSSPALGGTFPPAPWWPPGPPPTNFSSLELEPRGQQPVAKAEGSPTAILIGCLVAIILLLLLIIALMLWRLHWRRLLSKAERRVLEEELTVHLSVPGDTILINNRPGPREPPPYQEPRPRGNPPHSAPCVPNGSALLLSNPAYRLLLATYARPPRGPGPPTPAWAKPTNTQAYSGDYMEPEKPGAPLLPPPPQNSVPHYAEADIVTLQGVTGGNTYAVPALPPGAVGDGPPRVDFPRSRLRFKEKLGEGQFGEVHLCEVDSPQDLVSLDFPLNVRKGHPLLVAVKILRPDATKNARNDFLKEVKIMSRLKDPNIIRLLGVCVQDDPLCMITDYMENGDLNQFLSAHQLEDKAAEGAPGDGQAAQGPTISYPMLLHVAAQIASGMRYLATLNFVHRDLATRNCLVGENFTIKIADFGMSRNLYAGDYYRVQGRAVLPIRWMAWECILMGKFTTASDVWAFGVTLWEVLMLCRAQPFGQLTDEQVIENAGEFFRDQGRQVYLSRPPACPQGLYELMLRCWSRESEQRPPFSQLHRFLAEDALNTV

Row | Compound | Ki (DDR1 [1]) [nM] | Ki (DDR2) [nM] | IC50 (DDR1 [2]) [nM]
1 | CN1CCN(Cc2cc(C(=O)Nc3ccc4c(c3)N(C(=O)c3cnc5ccccn35)CC4)cc(C(F)(F)F)c2)CC1 [Example 16, N-(1-(imidazo[1,2-a]pyridine-3-carbonyl)indolin-6-yl)-3-((4-methylpiperazin-1-yl)methyl)-5-(trifluoromethyl)benzamide] | < 25 | < 25 | 25 to 50
2 | Cc1cn(-c2cc(C(=O)Nc3ccc4c(c3)N(Cc3cnc5ccccn35)CC4)cc(C(F)(F)F)c2)cn1 [Example 23, N-(1-(imidazo[1,2-a]pyridin-3-ylmethyl)indolin-6-yl)-3-(4-methyl-1H-imidazol-1-yl)-5-(trifluoromethyl)benzamide] | < 25 | < 25 | 50 to 80
3 | O=C(Nc1cccc(C(F)(F)F)c1)c1ccc2c(c1)N(Cc1cnc3cnccn13)CC2 [Example 42, 1-(imidazo[1,2-a]pyrazin-3-ylmethyl)-N-(3-(trifluoromethyl)phenyl)indoline-6-carboxamide] | < 25 | < 25 | < 25
4 | Cc1cn(-c2cc(NC(=O)c3ccc4c(c3)N(C(=O)c3cnc5cnccn35)CC4C)cc(C(F)(F)F)c2)cn1 (stereo not drawn) [Example 29, 1-(imidazo[1,2-a]pyrazine-3-carbonyl)-3-methyl-N-(3-(4-methyl-1H-imidazol-1-yl)-5-(trifluoromethyl)phenyl)indoline-6-carboxamide] | < 25 | < 25 | 50 to 80
5 | CC1CN(Cc2cnc3[nH]ncc3c2)c2cc(C(=O)Nc3cccc(C(F)(F)F)c3)ccc21 (racemic) [Example 30, 1-((1H-pyrazolo[3,4-b]pyridin-5-yl)methyl)-3-methyl-N-(3-(trifluoromethyl)phenyl)indoline-6-carboxamide] | < 25 | < 25 | < 25
6 | Cc1cn(-c2cc(NC(=O)c3ccc4c(c3)N(Cc3ccc5[nH]cnc5c3)CC4)cc(C(F)(F)F)c2)cn1 [Example 4, 1-((1H-benzo[d]imidazol-5-yl)methyl)-N-(3-(4-methyl-1H-imidazol-1-yl)-5-(trifluoromethyl)phenyl)indoline-6-carboxamide] | < 25 | < 25 | 25 to 50
7 | O=C(Nc1cc(F)cc(C(F)(F)F)c1)c1ccc2c(c1)N(Cc1cnc3cnccn13)CC2 [Example 41, N-(3-fluoro-5-(trifluoromethyl)phenyl)-1-(imidazo[1,2-a]pyrazin-3-ylmethyl)indoline-6-carboxamide] | < 25 | < 25 | 25 to 50
8 | CC(C)(C)c1cc(NC(=O)c2ccc3c(c2)N(Cc2cnc4[nH]ncc4c2)CC3)n(-c2ccccc2)n1 [Example 40, 1-((1H-pyrazolo[3,4-b]pyridin-5-yl)methyl)-N-(3-(tert-butyl)-1-phenyl-1H-pyrazol-5-yl)indoline-6-carboxamide] | 25 to 50 | < 25 | 25 to 50

Next, values leading:

Row | Ki (DDR1 [1]) [nM] | Ki (DDR2) [nM] | IC50 (DDR1 [2]) [nM] | Compound
9 | < 25 | < 25 | < 25 | Cc1n[nH]c2ncc(CN3CCc4ccc(C(=O)Nc5cc(CN6CC[C@@H](N(C)C)C6)cc(C(F)(F)F)c5)cc43)cc12 [Example 72, (R)-N-(3-((3-(dimethylamino)pyrrolidin-1-yl)methyl)-5-(trifluoromethyl)phenyl)-1-((3-methyl-1H-pyrazolo[3,4-b]pyridin-5-yl)methyl)indoline-6-carboxamide]
10 | < 25 | < 25 | < 25 | O=C(Nc1cc(F)cc(OC(F)(F)F)c1)c1ccc2c(c1)N(Cc1cnc3cnccn13)CC2 [Example 44, N-(3-fluoro-5-(trifluoromethoxy)phenyl)-1-(imidazo[1,2-a]pyrazin-3-ylmethyl)indoline-6-carboxamide]
11 | < 25 | < 25 | 25 to 50 | Cc1n[nH]c2ncc(CN3CCc4ccc(C(=O)Nc5ccc(CN6CCCC6)c(C(F)(F)F)c5)cc43)cc12 [Example 70, 1-((3-methyl-1H-pyrazolo[3,4-b]pyridin-5-yl)methyl)-N-(4-(pyrrolidin-1-ylmethyl)-3-(trifluoromethyl)phenyl)indoline-6-carboxamide]
12 | < 25 | < 25 | < 25 | Cc1n[nH]c2ncc(CN3CCc4ccc(C(=O)Nc5cc(CN(C)C)nc(C(F)(F)F)c5)cc43)cc12 [Example 82, N-(2-((dimethylamino)methyl)-6-(trifluoromethyl)pyridin-4-yl)-1-((3-methyl-1H-pyrazolo[3,4-b]pyridin-5-yl)methyl)indoline-6-carboxamide]
13 | < 25 | < 25 | < 25 | Cc1n[nH]c2ncc(CN3CCc4ccc(C(=O)Nc5cc(CN6CCCC6)cc(C(F)(F)F)c5)cc43)cc12 [Example 66, 1-((3-methyl-1H-pyrazolo[3,4-b]pyridin-5-yl)methyl)-N-(3-(pyrrolidin-1-ylmethyl)-5-(trifluoromethyl)phenyl)indoline-6-carboxamide]
14 | < 25 | 50 to 80 | 50 to 80 | O=C(Nc1cccc(C(F)(F)F)c1)c1ccc2c(c1)N(Cc1ccc3[nH]cnc3c1)CC2 [Example 60, 1-((1H-benzo[d]imidazol-5-yl)methyl)-N-(3-(trifluoromethyl)phenyl)indoline-6-carboxamide]
15 | < 25 | < 25 | 50 to 80 | O=C(Nc1cc(C(F)(F)F)ncn1)c1ccc2c(c1)N(Cc1cnc3cnccn13)CC2 [Example 88]
16 | < 25 | < 25 | 25 to 50 | CC1CN(Cc2cnc3cnccn23)c2cc(C(=O)Nc3cncc(C(F)(F)F)c3)ccc21 (stereo not drawn) [Example 92, 1-(imidazo[1,2-a]pyrazin-3-ylmethyl)-3-methyl-N-(5-(trifluoromethyl)pyridin-3-yl)indoline-6-carboxamide]
17 | < 25 | < 25 | < 25 | Cc1n[nH]c2ncc(CN3CCc4ccc(C(=O)Nc5cc(OCCN6CCCC6)cc(C(F)(F)F)c5)cc43)cc12 [Example 85, 1-((3-methyl-1H-pyrazolo[3,4-b]pyridin-5-yl)methyl)-N-(3-(2-(pyrrolidin-1-yl)ethoxy)-5-(trifluoromethyl)phenyl)indoline-6-carboxamide]
18 | < 25 | < 25 | 25 to 50 | O=C(Nc1cc(F)cc(OC(F)(F)F)c1)c1ccc2c(c1)N(Cc1cnc3ccccn13)CC2 [Example 56, N-(3-fluoro-5-(trifluoromethoxy)phenyl)-1-(imidazo[1,2-a]pyridin-3-ylmethyl)indoline-6-carboxamide]
19 | < 25 | < 25 | 25 to 50 | CN1CCN(Cc2ccc(NC(=O)c3ccc4c(c3)N(Cc3cnn5ccncc35)CC4)cc2C(F)(F)F)CC1 [Example 86, N-(4-((4-methylpiperazin-1-yl)methyl)-3-(trifluoromethyl)phenyl)-1-(pyrazolo[1,5-a]pyrazin-3-ylmethyl)indoline-6-carboxamide]
20 | < 25 | < 25 | 25 to 50 | CC(C)(c1cc(NC(=O)c2ccc3c(c2)N(Cc2cnc4cnccn24)CC3)no1)C(F)(F)F [Example 45, 1-(imidazo[1,2-a]pyrazin-3-ylmethyl)-N-(5-(1,1,1-trifluoro-2-methylpropan-2-yl)isoxazol-3-yl)indoline-6-carboxamide]
